Test results published in patent US10611741B2, “Substituted benzoxazine and related compounds” (THE J. DAVID GLADSTONE INSTITUTES, A TESTAMENTARY TRUST …, priority 2014, dated 2020).

How the values were obtained:
Rat neurons = experiment: Neuron autophagy assay (flux LC3 assay, conversion of photoconvertible reporter); assay type: cell-based; details: tested at 5, 10, 50, 200, 500, 1000 nM, overnight treatment, read-out: concentration at which active (neuronal autophagy induction)
Description: The induction of neuronal autophagy herein was measured by the conversion of photoconvertible reporter in a flux LC3 assay, as described in Tsvetkov et al., Nature Chemical Biology, 9:586-592 (2013), which is incorporated herein by reference.
mApple, kindly provided by Kurt Thorn of the Nikon microscopy core at UCSFR, was cloned into the pGW1 vector. pGW1-GFP and pGW1-Htt^exl-Q97-GFP were transfected according to normal protocols.
Cell cultures included striata, cortices, and hippocampi from rat embryos or newborn (postnatal day 0) mice were dissected, dissociated, and plated on 96-well tissue culture plates coated with poly-D-lysine and laminin. Cells were cultured for 4 days in neurobasal medium with L-glutamine and B-27 before use.
Rat neurons were transfected with plasmids using lipofectamine, treated overnight with vehicle (DMSO) or 5, 10, 50, 200, 500, and 1000 nM of exemplifying compounds and imaged everyday, once a day, for 7 days. […] Kolmogrov-Smirnov statistics test was used to calculate P values.

[1] = tested on: primary neurons transfected with exon 1 of mHtt protein containing 97 poly-glutamines; experiment: Neuronal death assay (primary rodent neuron cellular model of HD, survival by robotic microscopy); assay type: cell-based; details: for protecting neurons from mHtt toxicity: in words
Description: The compounds were tested in a primary rodent neuron cellular model of HD. In this disease model, neurons from the striatum, the site of severe pathology in HD, are transfected with full-length or N-terminal fragments of wild-type Htt or mHtt. The model recapitulates cellular and molecular features seen in HD, including mHtt-dependent neurodegeneration. To use the model in drug discovery, striatal neurons are co-transfected with fluorescently tagged mHtt and marker proteins and examined longitudinally using an automated fluorescent microscopy system (U.S. Pat. No. 7,139,415, incorporated by reference in its entirety). Neurons that express mHtt are periodically imaged, and the loss of fluorescence of the marker protein corresponds to cell death. Importantly, the automated system monitors how mHtt affects neuronal survival by following single cells longitudinally, distinguishing transfected neurons from non-transfected cells. Neurodegeneration is quantified by the difference in survival time between neuronal cells expressing mHtt and neuronal cells expressing wild-type Htt; drugs that increase neuronal survival in neurons expressing mHtt are neuroprotective. Hazard functions are determined by Cox proportional hazards (CPH) analysis to create hazard ratios that are the estimated instantaneous risk of death of individual cells, independent of population size.
Exemplifying compounds were tested for protecting neurons from mHtt toxicity. For this survival assay, primary neurons were transfected with a construct expressing exon 1 of mHtt protein containing 97 poly-glutamines and a fluorescent reporter to track the neurons. Neurons were imaged for 7 days using automated fluorescent robotic microscopy and analyzed for survival. Fluphenazine (Compound N) at 100 nM was used as positive control. DMSO was used as negative control.

[2] = Table 3, dose 200 nM, mHtt neurons, imaged 7 days
[3] = Table 4, dose 50 nM, mHtt neurons, imaged 7 days
[4] = Table 5, dose 10 nM, mHtt neurons, imaged 7 days

SMILES | minimal effective concentration (Rat neurons) [µM] | protecting neurons from mHtt toxicity [1] | Hazard Ratio [1, 3] | also measured
Cc1ccc2c(c1)N(C(=O)CCN1CCN(C)CC1)CCO2 [A, 1-(6-methyl-2,3-dihydro-4H-benzo[b][1,4]oxazin-4-yl)-3-(4-methylpiperazin-1-yl)propan-1-one] | < 0.05 |  |  | 
Cc1ccc2c(c1)N(C(=O)CN1CCN(C)CC1)CCO2 [B, 1-(6-methyl-2,3-dihydro-4H-benzo[b][1,4]oxazin-4-yl)-2-(4-methylpiperazin-1-yl)ethan-1-one] | < 0.05 |  |  | 
Cc1ccc2c(c1)N(CCCN1CCN(C)CC1)CCO2 [C, 6-methyl-4-(3-(4-methylpiperazin-1-yl)propyl)-3,4-dihydro-2H-benzo[b][1,4]oxazine] | < 0.05 |  |  | 
Cc1ccc2c(c1)N(CCN1CCN(C)CC1)CCO2 [Compound D, 6-methyl-4-(2-(4-methylpiperazin-1-yl)ethyl)-3,4-dihydro-2H-benzo[b][1,4]oxazine] | < 0.05 | active at nM concentrations |  | Hazard Ratio ([1]; Table 3, dose 10 nM, mHtt neurons, imaged 7 days): 0.9161
Cc1ccc2c(c1)N(C(=O)CN1CCN(c3ccccc3)CC1)CCO2 [Compound K, 1-(6-methyl-2,3-dihydro-4H-benzo[b][1,4]oxazin-4-yl)-2-(4-phenylpiperazin-1-yl)ethan-1-one] |  | active at nM concentrations |  | Hazard Ratio [1, 2]: 0.9209
OCCN1CCN(CCCN2c3ccccc3Sc3ccc(C(F)(F)F)cc32)CC1 [Compound N, 2-(4-(3-(2-(trifluoromethyl)-10H-phenothiazin-10-yl)propyl)piperazin-1-yl)ethan-1-ol, reference compound] |  |  |  | Hazard Ratio ([1]; Table 3, dose 100 nM, positive control): 0.8553; Hazard Ratio ([1]; Table 4, dose 100 nM, positive control): 0.7018; Hazard Ratio ([1]; Table 5, dose 100 nM, positive control): 0.5273
Cc1ccc2c(c1)N(CC(=O)N1CCN(CCNS(C)(=O)=O)CC1)CCO2 [Compound S, N-[2-[4-[2-(6-methyl-2,3-dihydro-1,4-benzoxazin-4-yl)acetyl]piperazin-1-yl]ethyl]methanesulfonamide] |  | active at nM concentrations | 0.6953 | 
Cc1ccc2c(c1)N(CC(=O)N1CCN(C)CC1)CCO2 [E, 2-(6-methyl-2,3-dihydro-4H-benzo[b][1,4]oxazin-4-yl)-1-(4-methylpiperazin-1-yl)ethan-1-one] | < 0.05 | active at nM concentrations |  | Hazard Ratio ([1]; Table 3, dose 50 nM, mHtt neurons, imaged 7 days): 0.8952
Cc1ccc2c(c1)N(CCC(=O)N1CCN(C)CC1)CCO2 [F, 3-(6-methyl-2,3-dihydro-4H-benzo[b][1,4]oxazin-4-yl)-1-(4-methylpiperazin-1-yl)propan-1-one] | < 0.05 |  |  | 
Cc1ccc2c(c1)N(CCN1CCN(C)CC1)C(=O)CO2 [G, 6-methyl-4-(2-(4-methylpiperazin-1-yl)ethyl)-2H-benzo[b][1,4]oxazin-3(4H)-one] | < 0.05 |  |  | 
Cc1ccc2c(c1)N(CC(=O)N1CCN(C)CC1)C(=O)CO2 [I, 6-methyl-4-(2-(4-methylpiperazin-1-yl)-2-oxoethyl)-2H-benzo[b][1,4]oxazin-3(4H)-one] | < 0.05 |  |  | 
Cc1ccc2c(c1)N(C(=O)CC1CCN(C)CC1)CCO2 [L, 1-(6-methyl-2,3-dihydro-4H-benzo[b][1,4]oxazin-4-yl)-2-(1-methylpiperidin-4-yl)ethan-1-one] |  | active at nM concentrations |  | Hazard Ratio [1, 2]: 0.9143
Cc1ccc2c(c1)N(C(=O)CN1CCN(C3CCCCC3)CC1)CCO2 [O, 2-(4-cyclohexylpiperazin-1-yl)-1-(6-methyl-2,3-dihydro-1,4-benzoxazin-4-yl)ethanone] |  | active at nM concentrations | 0.5747 | 
Cc1ccc2c(c1)N(C(=O)CN1CCN(C(C)C)CC1)CCO2 [P, 1-(6-methyl-2,3-dihydro-1,4-benzoxazin-4-yl)-2-(4-propan-2-ylpiperazin-1-yl)ethanone] |  | active at nM concentrations | 0.7384 | Hazard Ratio [1, 4]: 0.6275
Cc1ccc2c(c1)N(CC(=O)N1CCN(CCO)CC1)CCO2 [Q, 1-[4-(2-hydroxyethyl)piperazin-1-yl]-2-(6-methyl-2,3-dihydro-1,4-benzoxazin-4-yl)ethanone] |  | active at nM concentrations | 0.5709 | Hazard Ratio [1, 4]: 0.558
COCCN1CCN(C(=O)CN2CCOc3ccc(C)cc32)CC1 [R, 1-[4-(2-methoxyethyl)piperazin-1-yl]-2-(6-methyl-2,3-dihydro-1,4-benzoxazin-4-yl)ethanone] |  | active at nM concentrations | 0.7345 | Hazard Ratio [1, 4]: 0.7036
